Results published in the supplement of paper PMC11061612.

Key:
[1] = test system: JVM-3 (B-Cell Non-Hodgkin's Lymphoma); assay: combination Emax (second highest fraction inhibited in the dose matrix, 72 h); higher = more inhibition; extreme values may be limits of the assay
Procedure, shortened: (§1)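 Cell lines grown in DMEM/F12 or RPMI with 10% FBS were plated in 1536-well plates and held 24 hours at 37°C, 5% CO2 before 72 hours of exposure to two-drug dose matrices, with DMSO typically at 0.2%. CellTiter-Glo 2.0 luminescence gave viability, which was converted to inhibition. Vehicle wells were set to 0 and blank wells to 1. Combination Emax is the second-highest inhibition in the matrix, and Bliss excess is the observed combination effect minus the expected EA + EB − EA·EB, where EA and EB are the single-agent effects.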

[2] = test system: RF-48 (B-Cell Non-Hodgkin's Lymphoma); assay: as above
Procedure, shortened: as §1

[3] = test system: ACHN (Kidney Carcinoma); assay: as above
Procedure, shortened: as §1

[4] = test system: JVM-3 (B-Cell Non-Hodgkin's Lymphoma); assay: Bliss excess, mean over the matrix (fraction); higher = more synergy
Procedure, shortened: as §1
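Throughout, for Bliss excess, mean over the matrix: after 72 h of two-drug dosing.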

Structure (SMILES) | combination Emax [1] | combination Emax [2] | combination Emax [3] | Bliss excess [4]
COc1cccc(OCCCN)c1-c1cc(Nc2cnc(C#N)cn2)n[nH]1 [Prexasertib] + O=C(c1cc(Cc2n[nH]c(=O)c3ccccc23)ccc1F)N1CCN(C(=O)C2CC2)CC1 [Olaparib] (first compound max 1 µM, 7x7, partner max 10 µM) | 0.986 | 0.726 | 0.906 | -0.0314
CC1(C)CCC(CN2CCN(c3ccc(C(=O)NS(=O)(=O)c4ccc(NCC5CCOCC5)c([N+](=O)[O-])c4)c(Oc4cnc5[nH]ccc5c4)c3)CC2)=C(c2ccc(Cl)cc2)C1 [Venetoclax] + Cc1cc2ncnn2cc1Nc1ncc2c(n1)n(C1CCOCC1)c(=O)n2C [AZD7648] (first compound max 1 µM, 7x7, partner max 10 µM) | 0.64 | 0.321 | 0.725 | -0.0799
C=CCn1c(=O)c2cnc(Nc3ccc(N4CCN(C)CC4)cc3)nc2n1-c1cccc(C(C)(C)O)n1 [AZD1775] + O=C(c1cc(Cc2n[nH]c(=O)c3ccccc23)ccc1F)N1CCN(C(=O)C2CC2)CC1 [Olaparib] (first compound max 1 µM, partner max 10 µM) | 0.895 | 0.651 | 0.907 | -0.109
CN(CCO)CC[C@H](CSc1ccccc1)Nc1ccc(S(=O)(=O)NC(=O)c2ccc(N3CCC([C@@H](O)c4ccccc4-c4ccc(Cl)cc4)CC3)cc2)cc1S(=O)(=O)C(F)(F)F [AZD4320] + CN(C)CCCOc1ccc(-c2ccc3ncc4c(c3c2)n(C2CCOCC2)c(=O)n4C)cn1 [AZD0156] (first compound max 1 µM, 7x7, partner max 1 µM) | 0.92 | 0.773 | 0.125 | 0.0006
COc1cccc(OCCCN)c1-c1cc(Nc2cnc(C#N)cn2)n[nH]1 [Prexasertib] + C[C@@H]1COCCN1C2=NC(=NC(=C2)C3(CC3)[S@](=N)(=O)C)C4=C5C=CNC5=NC=C4 [AZD6738] (first compound max 1 µM, 7x7, partner max 10 µM) | 0.966 | 0.71 | 0.928 | -0.0351
C[C@@H]1COCCN1c1cc(C2([S@](C)(=N)=O)CC2)nc(-c2ccnc3[nH]ccc23)n1 [AZD6738] + O=C(c1cc(Cc2n[nH]c(=O)c3ccccc23)ccc1F)N1CCN(C(=O)C2CC2)CC1 [Olaparib] (first compound max 10 µM, 7x7, partner max 10 µM) | 0.704 | 0.56 | 0.988 | -0.0937
CCN(CCO)CCCOc1ccc2c(Nc3cc(CC(=O)Nc4cccc(F)c4)[nH]n3)ncnc2c1 [AZD2811] + C=CCn1c(=O)c2cnc(Nc3ccc(N4CCN(C)CC4)cc3)nc2n1-c1cccc(C(C)(C)O)n1 [AZD1775] (first compound max 1 µM, partner max 1 µM) | 0.775 | 0.522 | 0.999 | 0.0365
CC(=O)Nc1cccc(-n2c(=O)n(C3CC3)c(=O)c3c(Nc4ccc(I)cc4F)n(C)c(=O)c(C)c32)c1 [Trametinib] + Cc1nc(-c2cn3c(n2)-c2ccc(-c4cnn(C(C)(C)C(N)=O)c4)cc2OCC3)n(C(C)C)n1 [Taselisib] (first compound max 1 µM, 7x7, partner max 10 µM) | 0.734 | 0.345 | 0.643 | -0.006
COc1cccc(OCCCN)c1-c1cc(Nc2cnc(C#N)cn2)n[nH]1 [Prexasertib] + Cc1cc2ncnn2cc1Nc1ncc2c(n1)n(C1CCOCC1)c(=O)n2C [AZD7648] (first compound max 1 µM, 7x7, partner max 10 µM) | 0.981 | 0.725 | 0.935 | -0.027
CN(C)CCCOc1ccc(-c2ccc3ncc4c(c3c2)n(C2CCOCC2)c(=O)n4C)cn1 [AZD0156] + O=C(c1cc(Cc2n[nH]c(=O)c3ccccc23)ccc1F)N1CCN(C(=O)C2CC2)CC1 [Olaparib] (first compound max 3 µM, partner max 3 µM) | 0.684 | 0.319 | 0.338 | 0.234
CC1(C)CCC(CN2CCN(c3ccc(C(=O)NS(=O)(=O)c4ccc(NCC5CCOCC5)c([N+](=O)[O-])c4)c(Oc4cnc5[nH]ccc5c4)c3)CC2)=C(c2ccc(Cl)cc2)C1 [Venetoclax] + C[C@@H](Nc1cc(F)cc(F)c1)c1cc(C(=O)N(C)C)cc2c(=O)cc(N3CCOCC3)oc12 [AZD8186] (first compound max 1 µM, 7x7, partner max 3 µM) | 0.486 | 0.345 | 0.842 | -0.0619
CC1(C)CCC(CN2CCN(c3ccc(C(=O)NS(=O)(=O)c4ccc(NCC5CCOCC5)c([N+](=O)[O-])c4)c(Oc4cnc5[nH]ccc5c4)c3)CC2)=C(c2ccc(Cl)cc2)C1 [Venetoclax] + CN(C)CCCOc1ccc(-c2ccc3ncc4c(c3c2)n(C2CCOCC2)c(=O)n4C)cn1 [AZD0156] (first compound max 1 µM, 7x7, partner max 1 µM) | 0.673 | 0.212 | 0.78 | 0.0085
CN(C)CCCOc1ccc(-c2ccc3ncc4c(c3c2)n(C2CCOCC2)c(=O)n4C)cn1 [AZD0156] + C=CCn1c(=O)c2cnc(Nc3ccc(N4CCN(C)CC4)cc3)nc2n1-c1cccc(C(C)(C)O)n1 [AZD1775] (first compound max 1 µM, partner max 1 µM) | 0.895 | 0.602 | 0.933 | -0.0347
C=CCn1c(=O)c2cnc(Nc3ccc(N4CCN(C)CC4)cc3)nc2n1-c1cccc(C(C)(C)O)n1 [AZD1775] + C[C@@H]1COCCN1C2=NC(=NC(=C2)C3(CC3)[S@](=N)(=O)C)C4=C5C=CNC5=NC=C4 [AZD6738] (first compound max 1 µM, partner max 10 µM) | 0.876 | 0.669 | 0.964 | -0.0178
CC1(C)CCC(CN2CCN(c3ccc(C(=O)NS(=O)(=O)c4ccc(NCC5CCOCC5)c([N+](=O)[O-])c4)c(Oc4cnc5[nH]ccc5c4)c3)CC2)=C(c2ccc(Cl)cc2)C1 [Venetoclax] + C[C@@H]1COCCN1C2=NC(=NC(=C2)C3(CC3)[S@](=N)(=O)C)C4=C5C=CNC5=NC=C4 [AZD6738] (first compound max 1 µM, 7x7, partner max 10 µM) | 0.9 | 0.562 | 0.937 | 0.0106
COc1cccc(OCCCN)c1-c1cc(Nc2cnc(C#N)cn2)n[nH]1 [Prexasertib] + C=CCn1c(=O)c2cnc(Nc3ccc(N4CCN(C)CC4)cc3)nc2n1-c1cccc(C(C)(C)O)n1 [AZD1775] (first compound max 1 µM, partner max 1 µM) | 0.973 | 0.786 | 0.96 | 0.0369
CC1(C)CCC(CN2CCN(c3ccc(C(=O)NS(=O)(=O)c4ccc(NCC5CCOCC5)c([N+](=O)[O-])c4)c(Oc4cnc5[nH]ccc5c4)c3)CC2)=C(c2ccc(Cl)cc2)C1 [Venetoclax] + CCN(CCO)CCCOc1ccc2c(Nc3cc(CC(=O)Nc4cccc(F)c4)[nH]n3)ncnc2c1 [AZD2811] (first compound max 1 µM, 7x7, partner max 1 µM) | 0.653 | 0.43 | 0.739 | 0.162
Cc1c2c(nn1C)CSCc1cc(n(C)n1)CSc1cc(c3ccccc3c1)OCCCc1c(C(=O)O)n(C)c3c-2c(Cl)ccc13 [AZD5991] + Cc1cc2ncnn2cc1Nc1ncc2c(n1)n(C1CCOCC1)c(=O)n2C [AZD7648] (first compound max 1 µM, 7x7, partner max 10 µM) | 0.498 | 0.262 | 0.246 | -0.0539
Cc1c2c(nn1C)CSCc1cc(n(C)n1)CSc1cc(c3ccccc3c1)OCCCc1c(C(=O)O)n(C)c3c-2c(Cl)ccc13 [AZD5991] + C[C@@H](Nc1cc(F)cc(F)c1)c1cc(C(=O)N(C)C)cc2c(=O)cc(N3CCOCC3)oc12 [AZD8186] (first compound max 1 µM, 7x7, partner max 3 µM) | 0.44 | 0.365 | 0.342 | -0.0119
CCN(CCO)CCCOc1ccc2c(Nc3cc(CC(=O)Nc4cccc(F)c4)[nH]n3)ncnc2c1 [AZD2811] + O=C(c1cc(Cc2n[nH]c(=O)c3ccccc23)ccc1F)N1CCN(C(=O)C2CC2)CC1 [Olaparib] (first compound max 1 µM, 7x7, partner max 10 µM) | 0.45 | 0.294 | 0.211 | -0.0119
CC1(C)CCC(CN2CCN(c3ccc(C(=O)NS(=O)(=O)c4ccc(NCC5CCOCC5)c([N+](=O)[O-])c4)c(Oc4cnc5[nH]ccc5c4)c3)CC2)=C(c2ccc(Cl)cc2)C1 [Venetoclax] + C=CCn1c(=O)c2cnc(Nc3ccc(N4CCN(C)CC4)cc3)nc2n1-c1cccc(C(C)(C)O)n1 [AZD1775] (first compound max 1 µM, partner max 1 µM) | 0.953 | 0.667 | 0.96 | -0.0521
CCc1c2c(nc3ccc(O)cc13)-c1cc3c(c(=O)n1C2)COC(=O)[C@]3(O)CC [SN-38] + CN(C)CCCOc1ccc(-c2ccc3ncc4c(c3c2)n(C2CCOCC2)c(=O)n4C)cn1 [AZD0156] (first compound max 0.3 µM, 7x7, partner max 1 µM) | 0.982 | 0.801 | 0.951 | -0.0309
Cc1c2c(nn1C)CSCc1cc(n(C)n1)CSc1cc(c3ccccc3c1)OCCCc1c(C(=O)O)n(C)c3c-2c(Cl)ccc13 [AZD5991] + CCN(CCO)CCCOc1ccc2c(Nc3cc(CC(=O)Nc4cccc(F)c4)[nH]n3)ncnc2c1 [AZD2811] (first compound max 1 µM, 7x7, partner max 1 µM) | 0.486 | 0.262 | 0.27 | 0.0892
Cc1c2c(nn1C)CSCc1cc(n(C)n1)CSc1cc(c3ccccc3c1)OCCCc1c(C(=O)O)n(C)c3c-2c(Cl)ccc13 [AZD5991] + CC1(C)CCC(CN2CCN(c3ccc(C(=O)NS(=O)(=O)c4ccc(NCC5CCOCC5)c([N+](=O)[O-])c4)c(Oc4cnc5[nH]ccc5c4)c3)CC2)=C(c2ccc(Cl)cc2)C1 [Venetoclax] (first compound max 1 µM, 7x7, partner max 1 µM) | 0.764 | 0.497 | 0.192 | 0.146
COc1cccc(OCCCN)c1-c1cc(Nc2cnc(C#N)cn2)n[nH]1 [Prexasertib] + CN(C)CCCOc1ccc(-c2ccc3ncc4c(c3c2)n(C2CCOCC2)c(=O)n4C)cn1 [AZD0156] (first compound max 1 µM, 7x7, partner max 1 µM) | 0.985 | 0.744 | 0.926 | -0.0097
